# Reference: patent US9855277B2, “Use of 5H-dibenz/b,f/azepine-5-carboxamide derivatives for treating fibromyalgia” (BIAL—PORTELA & CA, S.A., priority 2009, dated 2018)
# What was measured:
# [1] = system: peripheral nerve filaments of CCI mice; assay: Ectopic discharge of peripheral nerve filaments in CCI mice (electrophysiological recording); format: in vivo; conditions: for ectopic discharge firing rate: 5 preparations
# Description: Adult male BL CB F1 mice, weighing 25-30 g at the time of surgery and 26-38 g at the time of electrophysiological experiments, were used. The baseline paw withdrawal threshold (PWT) was examined using a series of graduated von Frey hairs (see below) on 3 consecutive days before surgery and re-assessed on the 7th and on the 14th days after surgery, before electrophysiological recording. The animals were killed by an overdose of pentobarbitone on completion of the study. The chronic constriction injury (CCI) model was prepared following the standard protocols described previously (Bennett and Xie, 1988). Mice were anaesthetised and the lateral side of the left thigh was shaved and sterilized with 75% ethanol. A small incision of approximately 0.5 cm was made parallel to the femur. The muscle was carefully separated to expose the sciatic nerve. Three loose ligatures were placed on the sciatic nerve with 5-0 suture silk thread at approximately 1 mm intervals. The wound was closed in layers with suture silk 4-0 and the animals were placed in a recovery chamber with the temperature controlled and set at 30° C. A dose of amoxicillin (0.02 mL, 3 mg) was routinely injected i.p. after surgery to prevent infection. The animals were returned to their home cages after complete recovery of consciousness and freedom of movement. For the first 2 days after surgery, the animals were closely monitored at least twice daily and subsequently, at least once daily until compound testing. Each animal was placed in a perspex cage on a metal mesh. A series of von Frey filaments (0.07 g, 0.16 g, 0.4 g, 0.6 g, 1.0 g) were applied to the plantar surface of the hind-paw, from below. The filaments were applied in ascending order (starting with the lowest force 0.07 g) to both ipsilateral and contralateral hind-paws. Each filament was applied 10 times with a protocol of one second on, one second off. The PWT was defined as being the lowest force required to elicit at least 5 paw withdrawal responses out of 10 trials. The baseline PWT was tested for 3 consecutive days before surgery and re-assessed on the 7th and 14th days after surgery to monitor the development of mechanical allodynia. Only those mice showing significant mechanical allodynia (PWT≦0.2 g) were selected for subsequent electrophysiological experiments. The mice were re-anaesthetised and the sciatic nerve was exposed via a dorsal incision on the hind-limb. The skin was secured (stitched) to a metal O-ring to form an oil pool for recording nerve activity. A reference electrode was connected to the metal O-ring to form a closed circuit with the nerve recording electrode. To record ectopic discharge generated from the intact animal, under a microscope, the small bundles of sural nerve (distal to the ligated area) were repeatedly teased and looped onto a unipolar silver electrode for examination. To facilitate the recording of ectopic discharge generated from the neuroma (ligated area) or from the DRG, the sciatic nerve was separated carefully from the surrounding connective tissues, sectioned at a more proximal site leaving the injured area intact or near the injured area leaving the more proximal part intact. A small bundle of nerve filaments were teased from the sciatic nerve from either the distal or proximal cut end of the sciatic nerve, to record neuroma-generated ectopic discharge, or from the proximal cut end to record DRG-generated ectopic discharge. The filament was looped on to a unipolar silver wire recording electrode with an indifference electrode connected to the connective tissues nearby, allowing the spontaneous activity generated from either the ligated area (sensitized axons) or from DRG (somata) to be recorded. The electrical signals were then recorded through a CED micro-1401 interface to a PC for later off-line analysis. Recording from a fibre with spontaneous activity was undertaken for at least 10 min for control and 40 min after either vehicle or ESL administration. […]
# [2] = system: patients with partial epilepsy; assay: MADRS, open label extension of phase 3 study, Trial 1; format: in vivo, human
# Experimental: During an open label extension of a phase 3 study with ESL, the effect on depressive symptoms in patients taking at least one other anti-epileptic drug was assessed using the Montgomery Åsberg Depression Rating Scale (MADRS) at the end of treatment (after one year or after early discontinuation) and results compared with those at baseline. Patients were treated with ESL dosages in the range of 400-1500 mg, the majority being treated once daily with 800 mg ESL.
# [3] = system: patients with partial epilepsy; assay: MADRS, open label extension of phase 3 study, Trial 2; format: in vivo, human
# Experimental: During a further open label extension of a phase 3 study with ESL, the effect on depressive symptoms in patients taking at least one other anti-epileptic drug was assessed using the Montgomery Åsberg Depression Rating Scale (MADRS) at the end of treatment (after one year or after early discontinuation) and results compared with those at baseline. Patients were treated with ESL dosages in the range of 400-1500 mg, the majority being treated once daily with 800 mg ESL.
# [4] = long-term open-label adjunctive therapy, partial epilepsy
smiles,measurement,setting,value
"CC(=O)O[C@H]1Cc2ccccc2N(C(N)=O)c2ccccc21 [ESL, S-(−)-10-acetoxy-10,11-dihydro-5H-dibenz/b,f/azepine-5-carboxamide]","ectopic discharge, % of control","[1]; DRG origin, ESL 100 mg/kg i.p., P<0.05 vs vehicle",58.43±13.21 % of control
same,ectopic discharge average firing rate,"[1]; DRG origin, ESL 100 mg/kg i.p., control 514.3±141.0, 6 preparations",274.4±117.1 imps/min
same,"ectopic discharge, % of control level","[1]; intact CCI mice, ESL 100 mg/kg ip, 30-35 min after injection, P<0.001 vs control",26.6±10.6 % of control
same,ectopic discharge firing rate,"[1]; intact CCI mice, ESL 100 mg/kg ip, 30-35 min after injection, control 2048.0±391.6, mean±SEM",699.8±339.7 imps/min
same,ectopic discharge firing rate,"[1]; neuroma origin (sciatic nerve sectioned proximally), ESL 100 mg/kg ip, 30 min after injection, control 1390.6±378.5",643.5±249.2 imps/min
same,"ectopic discharge, % of control levels","[1]; neuroma origin, ESL 100 mg/kg ip, 30 min after injection, P<0.01",36.5±12.3 % of control
same,MADRS total score at end of treatment,"[2]; ITT population (166 patients), baseline 10.5, ESL 400-1500 mg, mostly 800 mg once daily, one year or early discontinuation, p<0.05",7.8
same,"depressive symptoms (MADRS), change from baseline",[2]; [4],Statistically and clinically significant improvement from baseline
same,"MADRS apparent sadness, mean relative improvement",[3]; ITT population (264 patients),34%
same,"MADRS concentration difficulties, mean relative improvement",[3]; ITT population (264 patients),30%
same,"MADRS inability to feel, mean relative improvement",[3]; ITT population (264 patients),38%
same,"MADRS inner tension, mean relative improvement",[3]; ITT population (264 patients),31%
same,"MADRS lassitude, mean relative improvement",[3]; ITT population (264 patients),38%
same,"MADRS pessimistic thoughts, mean relative improvement",[3]; ITT population (264 patients),26%
same,"MADRS reduced appetite, mean relative improvement",[3]; ITT population (264 patients),57%
same,"MADRS reduced sleep, mean relative improvement",[3]; ITT population (264 patients),48%
same,"MADRS reported sadness, mean relative improvement",[3]; ITT population (264 patients),40%
same,"MADRS suicidal thoughts, mean relative improvement",[3]; ITT population (264 patients),56%
same,"MADRS apparent sadness, mean relative improvement",[3]; PP population (232 patients),38%
same,"MADRS concentration difficulties, mean relative improvement",[3]; PP population (232 patients),33%
same,"MADRS inability to feel, mean relative improvement",[3]; PP population (232 patients),35%
same,"MADRS inner tension, mean relative improvement",[3]; PP population (232 patients),34%
same,"MADRS lassitude, mean relative improvement",[3]; PP population (232 patients),39%
same,"MADRS pessimistic thoughts, mean relative improvement",[3]; PP population (232 patients),31%
same,"MADRS reduced appetite, mean relative improvement",[3]; PP population (232 patients),62%
same,"MADRS reduced sleep, mean relative improvement",[3]; PP population (232 patients),53%
same,"MADRS reported sadness, mean relative improvement",[3]; PP population (232 patients),41%
same,"MADRS suicidal thoughts, mean relative improvement",[3]; PP population (232 patients),60%
same,"depressive mood as assessed by MADRS, change from baseline",[3]; [4],statistically significant improvement from baseline
